Experimental data taken from PubChem BioAssay (NCI).
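Dose response: 5 concentrations. Exposure: 48 h. Format: 96-well plates. Endpoint: linear interpolation; highest concentration if not reached. At the TGI there is no net growth.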

Columns and labels:
Assay in all cases: inhibition of tumour cell growth, NCI panel, 48 h
HCT-15 colon = tested on: HCT-15 colon
T-47D breast = tested on: T-47D breast
NCI/ADR-RES ovarian = tested on: NCI/ADR-RES ovarian
OVCAR-3 ovarian = tested on: OVCAR-3 ovarian
RPMI-8226 leukemia = tested on: RPMI-8226 leukemia
DU-145 prostate = tested on: DU-145 prostate
SW-620 colon = tested on: SW-620 colon
SK-MEL-28 melanoma = tested on: SK-MEL-28 melanoma
786-0 renal = tested on: 786-0 renal
HOP-92 NSCLC = tested on: HOP-92 NSCLC
RXF 393 renal = tested on: RXF 393 renal
MDA-MB-435 = tested on: MDA-MB-435
NCI-H23 lung = tested on: NCI-H23 lung
SF-268 CNS = tested on: SF-268 CNS
PC-3 prostate = tested on: PC-3 prostate
CCRF-CEM leukemia = tested on: CCRF-CEM leukemia
MDA-N = tested on: MDA-N
SNB-75 CNS = tested on: SNB-75 CNS
MDA-MB-231 breast = tested on: MDA-MB-231 breast
SK-MEL-5 melanoma = tested on: SK-MEL-5 melanoma
M14 melanoma = tested on: M14 melanoma
CAKI-1 renal = tested on: CAKI-1 renal
MOLT-4 leukemia = tested on: MOLT-4 leukemia
BT-549 breast = tested on: BT-549 breast
MALME-3M melanoma = tested on: MALME-3M melanoma
HT29 colon = tested on: HT29 colon
NCI-H226 lung = tested on: NCI-H226 lung
OVCAR-8 ovarian = tested on: OVCAR-8 ovarian
HL-60(TB) leukemia = tested on: HL-60(TB) leukemia
SK-OV-3 ovarian = tested on: SK-OV-3 ovarian
SR leukemia = tested on: SR leukemia
SNB-19 CNS = tested on: SNB-19 CNS
MCF7 breast = tested on: MCF7 breast
ACHN renal = tested on: ACHN renal
IGROV1 ovarian = tested on: IGROV1 ovarian
A498 renal = tested on: A498 renal
KM12 colon = tested on: KM12 colon
SF-539 CNS = tested on: SF-539 CNS
K-562 leukemia = tested on: K-562 leukemia
SN12C renal = tested on: SN12C renal
SK-MEL-2 melanoma = tested on: SK-MEL-2 melanoma
OVCAR-4 ovarian = tested on: OVCAR-4 ovarian
OVCAR-5 ovarian = tested on: OVCAR-5 ovarian
UACC-62 melanoma = tested on: UACC-62 melanoma
HS 578T breast = tested on: HS 578T breast
HOP-62 NSCLC = tested on: HOP-62 NSCLC
LOX IMVI melanoma = tested on: LOX IMVI melanoma
HCC-2998 colon = tested on: HCC-2998 colon
NCI-H522 lung = tested on: NCI-H522 lung
SF-295 CNS = tested on: SF-295 CNS
EKVX NSCLC = tested on: EKVX NSCLC
TK-10 renal = tested on: TK-10 renal
HCT-116 colon = tested on: HCT-116 colon
A549 NSCLC = tested on: A549 NSCLC
UACC-257 melanoma = tested on: UACC-257 melanoma
UO-31 renal = tested on: UO-31 renal
COLO 205 colon = tested on: COLO 205 colon
U251 CNS = tested on: U251 CNS
NCI-H460 lung = tested on: NCI-H460 lung

SMILES: O=c1[nH]nc(Cc2ccccc2)n1/N=C\CC/C=N\n1c(Cc2ccccc2)n[nH]c1=O
- TGI (HCT-15 colon): 75 µM
- TGI (T-47D breast): > 100 µM
- TGI (NCI/ADR-RES ovarian): 41.5 µM
- TGI (OVCAR-3 ovarian): > 100 µM
- TGI (RPMI-8226 leukemia): 80.9 µM
- TGI (DU-145 prostate): > 100 µM
- TGI (SW-620 colon): > 100 µM
- TGI (SK-MEL-28 melanoma): > 100 µM
- TGI (786-0 renal): > 100 µM
- TGI (HOP-92 NSCLC): > 100 µM
- TGI (RXF 393 renal): 72.5 µM
- TGI (MDA-MB-435): > 100 µM
- TGI (NCI-H23 lung): 66.6 µM
- TGI (SF-268 CNS): 77.7 µM
- TGI (PC-3 prostate): > 100 µM
- TGI (CCRF-CEM leukemia): > 100 µM
- TGI (MDA-N): > 100 µM
- TGI (SNB-75 CNS): 58.7 µM
- TGI (MDA-MB-231 breast): > 100 µM
- TGI (SK-MEL-5 melanoma): > 100 µM
- TGI (M14 melanoma): > 100 µM
- TGI (CAKI-1 renal): > 100 µM
- TGI (MOLT-4 leukemia): > 100 µM
- TGI (BT-549 breast): > 100 µM
- TGI (MALME-3M melanoma): 77.7 µM
- TGI (HT29 colon): 83.3 µM
- TGI (NCI-H226 lung): 83.1 µM
- TGI (OVCAR-8 ovarian): 58.9 µM
- TGI (HL-60(TB) leukemia): > 100 µM
- TGI (SK-OV-3 ovarian): > 100 µM
- TGI (SR leukemia): > 100 µM
- TGI (SNB-19 CNS): > 100 µM
- TGI (MCF7 breast): > 100 µM
- TGI (ACHN renal): > 100 µM
- TGI (IGROV1 ovarian): 40.7 µM
- TGI (A498 renal): > 100 µM
- TGI (KM12 colon): > 100 µM
- TGI (SF-539 CNS): 66.3 µM
- TGI (K-562 leukemia): > 100 µM
- TGI (SN12C renal): > 100 µM
- TGI (SK-MEL-2 melanoma): 90.3 µM
- TGI (OVCAR-4 ovarian): > 100 µM
- TGI (OVCAR-5 ovarian): > 100 µM
- TGI (UACC-62 melanoma): 46.6 µM
- TGI (HS 578T breast): 53.1 µM
- TGI (HOP-62 NSCLC): 88.4 µM
- TGI (LOX IMVI melanoma): > 100 µM
- TGI (HCC-2998 colon): > 100 µM
- TGI (NCI-H522 lung): > 100 µM
- TGI (SF-295 CNS): > 100 µM
- TGI (EKVX NSCLC): > 100 µM
- TGI (TK-10 renal): > 100 µM
- TGI (HCT-116 colon): 48.7 µM
- TGI (A549 NSCLC): > 100 µM
- TGI (UACC-257 melanoma): > 100 µM
- TGI (UO-31 renal): > 100 µM
- TGI (COLO 205 colon): > 100 µM
- TGI (U251 CNS): > 100 µM

SMILES: CCCCc1ccc(Nc2nc(=S)c3ncn(COCCO)c3[nH]2)cc1
- TGI (HCT-15 colon): > 100 µM
- TGI (T-47D breast): 46.8 µM
- TGI (NCI/ADR-RES ovarian): > 100 µM
- TGI (OVCAR-3 ovarian): 74.4 µM
- TGI (RPMI-8226 leukemia): 54 µM
- TGI (DU-145 prostate): > 100 µM
- TGI (SW-620 colon): > 100 µM
- TGI (786-0 renal): > 100 µM
- TGI (HOP-92 NSCLC): 63.4 µM
- TGI (RXF 393 renal): > 100 µM
- TGI (MDA-MB-435): > 100 µM
- TGI (NCI-H23 lung): > 100 µM
- TGI (PC-3 prostate): > 100 µM
- TGI (CCRF-CEM leukemia): 59.7 µM
- TGI (MDA-N): > 100 µM
- TGI (SNB-75 CNS): 97.9 µM
- TGI (MDA-MB-231 breast): 57.6 µM
- TGI (SK-MEL-5 melanoma): > 100 µM
- TGI (M14 melanoma): > 100 µM
- TGI (CAKI-1 renal): > 100 µM
- TGI (MOLT-4 leukemia): > 100 µM
- TGI (BT-549 breast): > 100 µM
- TGI (MALME-3M melanoma): 47.1 µM
- TGI (HT29 colon): > 100 µM
- TGI (NCI-H460 lung): > 100 µM
- TGI (NCI-H226 lung): > 100 µM
- TGI (OVCAR-8 ovarian): > 100 µM
- TGI (HL-60(TB) leukemia): 54.4 µM
- TGI (SK-OV-3 ovarian): > 100 µM
- TGI (SR leukemia): 66.7 µM
- TGI (SNB-19 CNS): > 100 µM
- TGI (MCF7 breast): 54.1 µM
- TGI (ACHN renal): > 100 µM
- TGI (IGROV1 ovarian): > 100 µM
- TGI (A498 renal): > 100 µM
- TGI (KM12 colon): > 100 µM
- TGI (SF-539 CNS): > 100 µM
- TGI (K-562 leukemia): 51.7 µM
- TGI (SN12C renal): > 100 µM
- TGI (SK-MEL-2 melanoma): 90.4 µM
- TGI (OVCAR-4 ovarian): > 100 µM
- TGI (OVCAR-5 ovarian): > 100 µM
- TGI (UACC-62 melanoma): > 100 µM
- TGI (HS 578T breast): > 100 µM
- TGI (HOP-62 NSCLC): > 100 µM
- TGI (LOX IMVI melanoma): 76.1 µM
- TGI (HCC-2998 colon): > 100 µM
- TGI (NCI-H522 lung): 51.3 µM
- TGI (SF-295 CNS): > 100 µM
- TGI (EKVX NSCLC): > 100 µM
- TGI (TK-10 renal): > 100 µM
- TGI (HCT-116 colon): > 100 µM
- TGI (A549 NSCLC): > 100 µM
- TGI (UACC-257 melanoma): > 100 µM
- TGI (UO-31 renal): > 100 µM
- TGI (COLO 205 colon): 44.5 µM
- TGI (U251 CNS): > 100 µM
